# From US4703050A, “Methods of inducing neuron protective activity” (Roussel Uclaf, priority 1985, dated 1987)
# Columns and labels:
# Format in all cases: in vivo
# [1] = Asphysic Anoxemia Test (electroencephalogram survival); conditions: mice, curare, 2 mg/kg, respiratory assistance stopped; for increase in the time necessary for the electroencephalogram to disappear: vs control animals
# Procedure: Curare was administered to mice which were placed under assisted respiration and the products to be tested were administered at a dose of 2 mg/kg, and the respiratory assistance was stopped.
# [2] = Acute Toxicity Study (LD0); conditions: mice, oral administration
# Excerpt: The result obtained was LD0 in mg/kg =200.
# enolase γγ = assay: Enolase Test (kainic acid-induced neuron lesion); conditions: mice, 1 mg/kg intraperitoneally
# Procedure: Injured cerebral cells release enolase γγ which is a specific indicator of neuron lesion. In this test, the lesions were induced in the mice by sub-cutaneous injection of 35 mg/kg of kainic acid.
# Hypobaric Anoxemia Test = conditions: male mice, 15 min before 190 mm Hg, vs control animals
# Procedure: Male mice weighing 20-22 g were used having eaten nothing for 5 hours and they were divided into groups of 10 animals. The product to be tested was administered to the animals subcutaneously. […] The increase in the survival time, expressed as a percentage was calculated for the treated animals in comparison with control animals submitted to the same conditions.
SMILES,electro-encephalographic survival [1],increase in the time necessary for the electroencephalogram to disappear [1] [%],LD0 (maximum dose which did not cause mortality in 8 days) [2] [mg/kg],decrease in the serous concentration of enolase (enolase γγ; 1 hour before 35 mg/kg s.c. kainic acid) [%],protection of cerebral cells in the affected area (enolase γγ; 1 hour before kainic acid),% Increase in the survival time (Hypobaric Anoxemia Test; 1 mg/kg subcutaneously) [%],% Increase in the survival time (Hypobaric Anoxemia Test; 10 mg/kg subcutaneously) [%]
"CSC[C@@H]1C=C2c3cccc4[nH]cc(c34)C[C@H]2N(C)C1 [Product B, 6-methyl-8β-methylthiomethyl-9,10-didehydroergoline]",prolong the electro-encephalographic survival,11,–,–,–,–,–
"CSC[C@@H]1C[C@@H]2c3cccc4[nH]cc(c34)C[C@H]2N(C)C1 [Product A, 6-methyl-8β-(methylthiomethyl)-ergoline]",prolong the electro-encephalographic survival,10,200,29,protected the cerebral cells in the affected area,12,57
